The values below are quoted from earlier work in patent US20240423898A1, “LONGEVITY EYE CREAM” (Wellbeam Consumer Health Intermediate, LLC, priority 2023, published 2024).

In one data set the test system is skin. Conditions: topical application.
Another data set deals with under-eye dark circles. The note with it: in vivo.

On to `C=C[C@@](C)(/C=C/c1ccc(O)cc1)CCC=C(C)C` [bakuchiol], for which, in the data set with skin, the “improvement in lines and wrinkles, pigmentation, elasticity, firmness, and overall reduction in photo-damage” value is listed as “significant improvement”; the “irritating effect on the skin” value is “no irritating effect on the skin”.
As to `Cn1c(=O)c2c(ncn2C)n(C)c1=O` [caffeine], in the data set with under-eye dark circles, the under-eye dark circles entry is given as “can reduce under-eye dark circles”.
